Consider 17 compounds from patent publication US20250236608A1, “EGFR INHIBITORS” (Blueprint Medicines Corporation, priority 2022, published 2025).

Test [1] deals with EGFR L858R (Homo sapiens (Human), UniProt P00533, L858R). Nature of the test: Biochemical EGFR inhibition assay, EGFR L858R. Conditions: Caliper mobility shift; 1.0 mM ATP or ATP Km; read-out: Enz EGFR_L858R IC50.
The target of test [2] is EGFR (d746-750) (Homo sapiens (Human), UniProt P00533, DEL746-750). Kind of test: Biochemical EGFR inhibition assay, EGFR (d746-750). Particulars: Caliper mobility shift; 1.0 mM ATP or ATP Km; read-out: Enz EGFR_Exon19-del746-750 IC50.
Sequence of EGFR (d746-750) (P00533 other isoform, or with tags, fused parts or gaps del 1-694/del 746-750 limits assumed): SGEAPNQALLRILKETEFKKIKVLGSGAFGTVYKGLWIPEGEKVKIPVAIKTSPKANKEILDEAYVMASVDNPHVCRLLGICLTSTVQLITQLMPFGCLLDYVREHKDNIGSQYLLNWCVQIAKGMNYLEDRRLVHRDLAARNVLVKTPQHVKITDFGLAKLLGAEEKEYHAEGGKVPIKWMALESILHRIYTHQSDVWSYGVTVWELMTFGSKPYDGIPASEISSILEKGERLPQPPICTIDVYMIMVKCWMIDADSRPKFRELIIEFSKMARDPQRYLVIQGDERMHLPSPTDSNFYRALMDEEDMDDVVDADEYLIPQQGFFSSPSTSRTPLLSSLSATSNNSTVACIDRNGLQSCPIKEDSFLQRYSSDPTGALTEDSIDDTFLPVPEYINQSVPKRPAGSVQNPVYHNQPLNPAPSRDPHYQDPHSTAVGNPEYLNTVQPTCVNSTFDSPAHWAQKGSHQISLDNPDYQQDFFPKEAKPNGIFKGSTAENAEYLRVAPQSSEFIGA
The target of test [3] is pEGFR (Tyr1068) in PC-9 cells (Ex19Del) (Homo sapiens (Human), UniProt P00533, DEL746-750). Nature of the test: PC-9 pEGFR AlphaLISA assay. In kind it is cell-based. Particulars: 4 hours incubation, p-EGFR (Tyr1068) AlphaLISA, read-out: Ext pEGFR_PC-9 Ex19Del IC50. The essentials:
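Cells seeded in phenol-free DMEM with 10% FBS adhered overnight at 37° C./5% CO2, then were exposed for 4 hours to a 4-fold, 10-point compound dilution series. After lysis, phospho-EGFR was read by AlphaLISA SureFire Ultra, and IC50 was fitted from percent inhibition versus log concentration.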

Sequence of pEGFR (Tyr1068) in PC-9 cells (Ex19Del) (P00533 other isoform, or with tags, fused parts or gaps del 746-750): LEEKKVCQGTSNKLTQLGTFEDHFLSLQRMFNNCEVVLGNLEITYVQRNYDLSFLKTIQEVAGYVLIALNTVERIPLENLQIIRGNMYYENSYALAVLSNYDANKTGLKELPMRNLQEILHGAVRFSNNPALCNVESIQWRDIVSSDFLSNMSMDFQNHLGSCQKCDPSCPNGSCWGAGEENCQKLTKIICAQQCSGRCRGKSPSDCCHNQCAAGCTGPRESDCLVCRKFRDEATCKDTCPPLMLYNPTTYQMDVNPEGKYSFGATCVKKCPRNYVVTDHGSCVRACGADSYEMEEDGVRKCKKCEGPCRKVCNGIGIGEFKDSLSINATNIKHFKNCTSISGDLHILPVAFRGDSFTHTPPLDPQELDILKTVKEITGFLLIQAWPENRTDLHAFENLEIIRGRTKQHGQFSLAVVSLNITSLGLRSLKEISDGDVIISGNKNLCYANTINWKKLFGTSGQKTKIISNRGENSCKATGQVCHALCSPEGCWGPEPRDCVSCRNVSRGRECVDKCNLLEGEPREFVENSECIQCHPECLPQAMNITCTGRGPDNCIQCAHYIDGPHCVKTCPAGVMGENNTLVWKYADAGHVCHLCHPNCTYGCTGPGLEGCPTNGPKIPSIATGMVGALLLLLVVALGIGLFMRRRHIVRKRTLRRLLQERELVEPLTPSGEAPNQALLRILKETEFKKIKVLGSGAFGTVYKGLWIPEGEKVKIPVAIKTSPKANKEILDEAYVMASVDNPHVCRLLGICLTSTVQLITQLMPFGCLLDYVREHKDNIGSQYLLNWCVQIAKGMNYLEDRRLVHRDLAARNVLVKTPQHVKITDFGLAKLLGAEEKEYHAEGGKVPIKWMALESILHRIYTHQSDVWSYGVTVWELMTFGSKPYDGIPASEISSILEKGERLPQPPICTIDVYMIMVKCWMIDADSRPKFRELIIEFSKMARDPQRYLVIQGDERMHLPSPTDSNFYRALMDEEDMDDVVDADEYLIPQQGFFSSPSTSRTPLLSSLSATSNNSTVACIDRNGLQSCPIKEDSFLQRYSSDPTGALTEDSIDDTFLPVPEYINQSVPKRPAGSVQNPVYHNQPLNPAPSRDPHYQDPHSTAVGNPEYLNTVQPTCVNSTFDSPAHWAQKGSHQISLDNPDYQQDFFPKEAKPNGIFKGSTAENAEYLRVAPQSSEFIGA
Sequence of EGFR L858R (P00533 25-1210 L858R): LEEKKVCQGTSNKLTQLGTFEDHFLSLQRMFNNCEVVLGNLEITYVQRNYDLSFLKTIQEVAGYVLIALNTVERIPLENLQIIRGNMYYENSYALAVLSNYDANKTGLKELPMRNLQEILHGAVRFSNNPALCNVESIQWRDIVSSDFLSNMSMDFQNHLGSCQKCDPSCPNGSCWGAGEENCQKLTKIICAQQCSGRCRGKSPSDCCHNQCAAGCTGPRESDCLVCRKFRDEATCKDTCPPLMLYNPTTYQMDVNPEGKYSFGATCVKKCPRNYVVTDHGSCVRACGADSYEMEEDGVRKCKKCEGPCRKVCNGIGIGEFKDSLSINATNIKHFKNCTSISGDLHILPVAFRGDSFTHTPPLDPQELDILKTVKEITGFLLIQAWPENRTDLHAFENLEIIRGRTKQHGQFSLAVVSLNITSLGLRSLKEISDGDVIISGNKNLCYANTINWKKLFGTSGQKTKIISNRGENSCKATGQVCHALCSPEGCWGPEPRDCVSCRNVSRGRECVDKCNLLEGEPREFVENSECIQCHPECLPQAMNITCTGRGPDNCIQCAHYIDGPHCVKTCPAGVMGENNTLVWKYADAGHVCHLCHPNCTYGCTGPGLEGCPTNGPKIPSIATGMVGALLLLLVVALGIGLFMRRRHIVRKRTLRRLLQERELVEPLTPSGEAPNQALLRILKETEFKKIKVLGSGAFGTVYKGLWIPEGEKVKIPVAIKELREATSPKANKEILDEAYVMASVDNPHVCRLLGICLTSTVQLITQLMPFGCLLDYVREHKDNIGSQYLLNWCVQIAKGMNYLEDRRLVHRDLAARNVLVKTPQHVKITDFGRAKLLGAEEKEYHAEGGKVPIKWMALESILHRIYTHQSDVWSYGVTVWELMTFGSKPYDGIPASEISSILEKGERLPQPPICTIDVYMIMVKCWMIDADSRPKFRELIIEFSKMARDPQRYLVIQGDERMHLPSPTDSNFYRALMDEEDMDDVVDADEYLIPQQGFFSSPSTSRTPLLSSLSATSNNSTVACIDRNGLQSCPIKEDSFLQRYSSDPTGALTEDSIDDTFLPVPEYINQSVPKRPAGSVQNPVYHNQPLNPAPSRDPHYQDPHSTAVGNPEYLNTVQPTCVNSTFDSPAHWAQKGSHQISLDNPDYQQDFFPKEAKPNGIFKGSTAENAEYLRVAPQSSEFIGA

Consider `Cc1nnc([C@@H](C)Oc2nc3c(-c4cn(C)nc4-c4ccccc4)ncnc3cc2OC2CC2)o1` (single isomer, unassigned) [Example 478, 2-[(1S)-1-{[7-cyclopropoxy-4-(1-methyl-3-phenyl-1H-pyrazol-4-yl)pyrido[3,2-d]pyrimidin-6-yl]oxy}ethyl]-5-methyl-1,3,4-oxadiazole or 2-[(1R)-1-{[7-cyclopropoxy-4-(1-methyl-3-phenyl-1H-pyrazol-4-yl)pyrido[3,2-d]pyrimidin-6-yl]oxy}ethyl]-5-methyl-1,3,4-oxadiazole], for which the IC50 turned out to be 10.5 nM in test [1], 2.8 nM in test [2] and 3.6 nM in test [3].
On the same counts, the results for `COc1cc2ncnc(-c3cn(C)nc3-c3ccccc3)c2cc1OC(=O)N1CCN(C)C[C@@H]1C` (stereo in doubt) [Example 59, 7-methoxy-4-(1-methyl-3-phenyl-1H-pyrazol-4-yl)quinazolin-6-yl(S)-2,4-dimethylpiperazine-1-carboxylate or 7-methoxy-4-(1-methyl-3-phenyl-1H-pyrazol-4-yl)quinazolin-6-yl (R)-2,4-dimethylpiperazine-1-carboxylate] are 3.3 nM, 2 nM and 4.2 nM.
In the case of `COc1cc2ncnc(-c3cn(C)nc3-c3ccccc3)c2cc1OC(=O)N1CCN2CCCC2C1` (stereo in doubt) [Example 84, 7-methoxy-4-(1-methyl-3-phenyl-1H-pyrazol-4-yl)quinazolin-6-yl (S)-hexahydropyrrolo[1,2-a]pyrazine-2(1H)-carboxylate], the concentration for half-maximal inhibition (IC50) is 4.9 nM in test [1], 3.3 nM in test [2] and 6.5 nM in test [3].
On the same counts, the results for `COc1cc2ncnc(-c3cn(C)nc3-c3ccccc3)c2cc1OC(=O)N1CCN2CCCC2C1` (stereo in doubt) [Example 85, 7-methoxy-4-(1-methyl-3-phenyl-1H-pyrazol-4-yl)quinazolin-6-yl (R)-hexahydropyrrolo[1,2-a]pyrazine-2(1H)-carboxylate] are 3.9 nM, 2.7 nM and 13.3 nM.
On the same counts, the results for `COc1cc2ncnc(-c3cn(C)nc3-c3ccccc3)c2cc1OC(=O)N1C(C)CN(C)C[C@H]1C` (stereo in doubt) [Example 90, 7-methoxy-4-(1-methyl-3-phenyl-1H-pyrazol-4-yl)quinazolin-6-yl (2R,6R)-2,4,6-trimethylpiperazine-1-carboxylate] are 14 nM, 8.5 nM and 31.6 nM.
With `COc1cc2ncnc(-c3cn(C)nc3-c3ccccc3)c2cc1NC(=O)N1CCO[C@@H]2C[C@@H]21` (stereo in doubt) [Example 185, N-[7-methoxy-4-(1-methyl-3-phenyl-1H-pyrazol-4-yl)quinazolin-6-yl]-2-oxa-5-azabicyclo[4.1.0]heptane-5-carboxamide], the IC50 in test [1] stood at 2.1 nM; in test [2], 1.3 nM; in test [3], 3.1 nM.
Regarding `COc1cc2ncnc(-c3cn(C)nc3-c3ccccc3)c2cc1NC(=O)N1CCN(C)[C@@H]2C[C@@H]21` (stereo in doubt) [Example 186, N-[7-methoxy-4-(1-methyl-3-phenyl-1H-pyrazol-4-yl)quinazolin-6-yl]-5-methyl-2,5-diazabicyclo[4.1.0]heptane-2-carboxamide], the IC50 in test [1] came out at 3.2 nM; in test [2], 2.3 nM; in test [3], 4 nM.
On the same counts, the results for `COc1cc2ncnc(-c3cn(C)nc3-c3ccccc3)c2cc1O[C@@H]1CCN(C)C[C@H]1F` [Example 1, 6-(((3R,4R)-3-fluoro-1-methylpiperidin-4-yl)oxy)-7-methoxy-4-(1-methyl-3-phenyl-1H-pyrazol-4-yl)quinazoline] are 4.2 nM, 1.8 nM and 4.2 nM.
On the same counts, the results for `COc1cc2ncnc(-c3cn(C)nc3-c3ccccc3)c2cc1O[C@H]1CCN(C)C[C@@H]1F` [Example 2, 6-(((3S,4S)-3-fluoro-1-methylpiperidin-4-yl)oxy)-7-methoxy-4-(1-methyl-3-phenyl-1H-pyrazol-4-yl)quinazoline] are 4.3 nM, 1.9 nM and 4.9 nM.
On the same counts, the results for `COc1cc2ncnc(-c3cn(CC(F)F)nc3-c3ccccc3)c2cc1O[C@@H]1CCN(C)C[C@H]1F` [Example 3, 4-(1-(2,2-difluoroethyl)-3-phenyl-1H-pyrazol-4-yl)-6-(((3R,4R)-3-fluoro-1-methylpiperidin-4-yl)oxy)-7-methoxyquinazoline] are 2.4 nM, 1.5 nM and 0.3 nM.
Consider `COc1cc2ncnc(-c3cn(C)nc3-c3ccccc3)c2cc1O[C@H]1CN(C)C[C@H]1F` [Example 4, 6-(((3S,4R)-4-fluoro-1-methylpyrrolidin-3-yl)oxy)-7-methoxy-4-(1-methyl-3-phenyl-1H-pyrazol-4-yl)quinazoline], for which the IC50 in test [1] was 4.1 nM; in test [2], 2.4 nM; in test [3] it was 8.5 nM.
On the same counts, the results for `COc1cc2ncnc(-c3cn(C)nc3-c3ccccc3)c2cc1O[C@@H]1CN(C)C[C@@H]1F` [Example 5, 6-(((3R,4S)-4-fluoro-1-methylpyrrolidin-3-yl)oxy)-7-methoxy-4-(1-methyl-3-phenyl-1H-pyrazol-4-yl)quinazoline] are 3 nM, 2 nM and 4.6 nM.
As to `COc1cc2ncnc(-c3cn(C)nc3-c3ccccc3)c2cc1O[C@H]1CN(C)C[C@@H]1F` [Example 6, 6-(((3S,4S)-4-fluoro-1-methylpyrrolidin-3-yl)oxy)-7-methoxy-4-(1-methyl-3-phenyl-1H-pyrazol-4-yl)quinazoline], the IC50 in test [1] came to 2.3 nM; in test [2], 1.7 nM; in test [3], 3.5 nM.
On the same counts, the results for `COc1cc2ncnc(-c3cn(C)nc3-c3ccccc3)c2cc1O[C@@H]1CN(C)C[C@H]1F` [Example 7, 6-(((3R,4R)-4-fluoro-1-methylpyrrolidin-3-yl)oxy)-7-methoxy-4-(1-methyl-3-phenyl-1H-pyrazol-4-yl)quinazoline] are 3.2 nM, 1.6 nM and 5.5 nM.
On the same counts, the results for `CCOc1cc2ncnc(-c3cn(C)nc3-c3ccccc3)c2cc1OC1CCNCC1` [Example 8, 7-ethoxy-4-(1-methyl-3-phenyl-1H-pyrazol-4-yl)-6-(piperidin-4-yloxy)quinazoline] are 4.8 nM, 3.4 nM and 4.5 nM.
On the same counts, the results for `CCOc1cc2ncnc(-c3cn(C)nc3-c3ccccc3)c2cc1OC1CCN(C)CC1` [Example 9, 7-ethoxy-4-(1-methyl-3-phenyl-1H-pyrazol-4-yl)-6-((1-methylpiperidin-4-yl)oxy)quinazoline] are 13.1 nM, 6.4 nM and 9.8 nM.
Turning to `CCOc1cc2ncnc(-c3cn(C)nc3-c3ccccc3)c2cc1OC1CCN(C(=O)CC)CC1` [Example 10, 1-(4-((7-ethoxy-4-(1-methyl-3-phenyl-1H-pyrazol-4-yl)quinazolin-6-yl)oxy)piperidin-1-yl) propan-1-one], the IC50 is 3.5 nM in test [1], 1.9 nM in test [2] and 2.8 nM in test [3].
